{"source": "patent US6812335B1", "about": "“Human polypeptide receptors for lysophospholipids and sphingolipids and nucleic acids encoding the same” (The Regents of the University of California, priority 1999, dated 2004)", "key": {"[1]": {"system": "MCF-7 BCCs", "assay": "SRE-firefly luciferase reporter assay in MCF-7 BCCs", "format": "cell-based, human", "conditions": "for maximal increase of mean luciferase luminometric activity: 10^−10 M to 10^−6 M lipid, 4 h"}, "[2]": {"system": "MDA-MB-453 BCCs", "assay": "SRE-firefly luciferase reporter assay in MDA-MB-453 BCCs", "format": "cell-based, human", "conditions": "for mean maximal increase of luciferase luminometric activity: 10^−10 M to 10^−6 M lipid, 4 h"}, "[3]": {"system": "MCF-7 BCC", "assay": "MCF-7 BCC secretion of IGF-II", "format": "cell-based, human"}, "[4]": {"molecular_target": "T1, Edg4 (Homo sapiens, UniProt Q9HBW0)", "T1 construct": "The Edg4 protein consists of 382 amino acids with an estimated molecular weight of 42,626 daltons; expressed in transfected cells; host or cells: Jurkat leukemic T cells, transient transfection with Edg4/EF3 (pCDEF3 vector)", "T1 sequence (Q9HBW0 with tags, fused parts or gaps)": "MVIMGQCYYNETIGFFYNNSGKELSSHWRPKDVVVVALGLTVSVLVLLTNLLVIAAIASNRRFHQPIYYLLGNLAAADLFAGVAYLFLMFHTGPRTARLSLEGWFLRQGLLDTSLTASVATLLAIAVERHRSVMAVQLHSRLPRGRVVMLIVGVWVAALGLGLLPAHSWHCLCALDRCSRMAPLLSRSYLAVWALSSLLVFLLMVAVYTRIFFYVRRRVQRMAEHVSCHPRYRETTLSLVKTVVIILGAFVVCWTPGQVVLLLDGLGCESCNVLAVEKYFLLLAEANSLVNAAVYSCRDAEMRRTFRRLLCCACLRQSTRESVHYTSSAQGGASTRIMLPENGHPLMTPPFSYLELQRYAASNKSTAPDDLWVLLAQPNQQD", "assay": "SRE-luciferase reporter gene assay in Edg4-transfected Jurkat cells", "format": "cell-based"}, "[5]": {"molecular_target": "T2, Edg2 (Homo sapiens, UniProt Q92633)", "T2 construct": "the 1.1-kb cDNA coding region of human Edg2 was cleaved from Edg2/RSV (An et al., supra) and also subcloned into pCDEF3; expressed in transfected cells; host or cells: Jurkat leukemic T cells, transient transfection with Edg2/EF3 (pCDEF3 vector)", "T2 sequence (Q92633 whole entry)": "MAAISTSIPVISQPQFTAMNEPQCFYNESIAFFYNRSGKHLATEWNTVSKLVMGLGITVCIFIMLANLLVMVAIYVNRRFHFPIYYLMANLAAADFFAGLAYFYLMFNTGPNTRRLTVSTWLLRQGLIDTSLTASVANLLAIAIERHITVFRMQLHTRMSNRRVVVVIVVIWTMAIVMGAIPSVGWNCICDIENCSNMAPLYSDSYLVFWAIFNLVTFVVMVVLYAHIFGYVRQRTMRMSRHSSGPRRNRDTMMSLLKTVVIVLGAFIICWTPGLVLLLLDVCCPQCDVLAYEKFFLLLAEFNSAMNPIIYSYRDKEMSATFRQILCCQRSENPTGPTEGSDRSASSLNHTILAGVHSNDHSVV", "assay": "SRE-luciferase reporter gene assay in Edg2-transfected Jurkat cells", "format": "cell-based", "conditions": "for pEC50: 10-h incubation, read-out: EC50 of activation of SRE-driven reporter gene"}, "[6]": {"system": "Tsup-1 cells", "conditions": "cited from earlier work"}, "[7]": {"system": "Tsup-1 cells", "assay": "Anti-Fas antibody-induced apoptosis of Tsup-1 cell transfectants (DNA endlabeling)", "protocol": "Human CD4+8+3^low T lymphoblasts of the Tsup-1 line were cultured in RPMI-1640 medium (UCSF Cell Culture facility) containing 10% (v:v) fetal bovine serum (FBS), 100 U/ml of penicillin G, 100 ug/ml of streptomycin and 1 mM beta-mercaptoethanol (complete RPMI medium) at 37° C. in 5% CO2 in air. Complete RPMI medium was added to cultures every 2-3 days to maintain a density of 0.5-1×10^6 Tsup-1 cells/ml.\nBriefly, after conditioning at low serum concentrations replicate suspensions of 5×10^5 Tsup-1 cells in 0.5 ml of RPMI-0.1% FBS were incubated in 24-well plastic plates (Falcon, Inc., Oxnard, Calif.) for 16 h at 37° C. in 5% CO2 in air. Some wells were precoated overnight at 4° C. with 30 ng of anti-Fas antibody (Pharmingen, Inc., San Diego, Calif.), 0.2 ug of anti-CD2 antibody (Pharmirigen, Inc., San Diego, Calif.) or a combination of 0.5 ug each of anti-CD3 antibody (Caltag Laboratories, Inc., So. San Francisco, Calif.) and anti-CD28 antibody (Bristol-Myers Squibb Pharmaceutical Research Institute, Seattle, Wash.), and in others 5 uM C6 ceramide was the stimulus for apoptosis.\nTransfections of replicate suspensions of 4×10^6 cells in 2 ml of RPMI-2% FBS cultured as in Example 6 above were carried out by dropwise addition of a 250 ul preincubated mixture of 5 ug of antisense plasmid DNA, 0.2 ug of DNA of the REP 4 plasmid (InVitrogen, San Diego, Calif.) encoding hygromycin resistance and 15 ul of FuGENE 6 non-liposomal lipofection reagent (Boehringer-Mannheim Corp., Indianapolis, Ind.), incubation for 16-24 hours, and washing once and incubation in 4 ml of RPMI-10% FBS with 800 ug/ml of hygromycin for seven additional days. Then the surviving transfectants were washed and cultured in 4 ml of RPMI-0.1% FBS for 16 hours. Antisense plasmids containing full-length cDNA encoding Edg-2, -3, -4 and -5 receptors in the reverse orientation relative to promotors were constructed in the expression vectors pRc/CMV2 for Edg-2, pcDNA 3.1 for Edg-3 and Edg4 (InVitrogen, Inc., Carlsbad, Calif.) and pSV.SPORT1 for Edg-5 (GIBCO BRL, Gaithersburg, Md.) Control cells were sham-transfected with plasmids lacking these antisense inserts.\nBriefly, cells from each well were pelleted at 200×g for 5 min at 4° C., resuspended in 0.5 ml of phosphate-buffered 4% formaldehyde, kept at room temperature for 10 minutes, re-pelleted, resuspended in 150 ul of 80% ethanol and immobilized and dried on poly-L-lysine precoated glass slides. Each slide was rehydrated in 20 mM Tris-130 mM NaCl (pH 7.6), and endogenous peroxidases were inactivated by treatment with 3% H2O2 in 90% methanol for 5 minutes at room temperature prior to endlabeling according to the procedures described in instructions for the Klenow-FragEL kit (Oncogene research Products-Calbiochem, Inc. La Jolla, Calif.). Percentage apoptosis was calculated from the number of Tsup-1 cells with stained nuclei of a total of 200 counted."}, "[8]": {"system": "Edg4", "assay": "SRE-luciferase reporter gene assay in Edg4-transfected Jurkat cells", "format": "cell-based, human", "conditions": "Edg4 versus Edg2 transfectants"}, "[9]": {"system": "Jurkat cells transfected with empty pCDEF3 vector", "format": "cell-based", "conditions": "control Jurkat cells"}, "[10]": {"molecular_target": "T1, Edg4", "assay": "[3H]LPA receptor binding assay in Edg4-transfected Jurkat cells", "conditions": "Edg4 transfectants", "procedure": "(§1) Jurkat T cells (2×10^7 in OPTI-MEM) were transfected with 2 μg of Edg4/EF3 or empty pCDEF3 vector for 4 hours at 37° C. using Lipofectin (Life Technologies, Inc). The transfected cells were maintained in RPMI 1640 medium containing 10% fetal bovine serum for 12 hours at 37° C. and washed three times with phosphate-buffered saline (PBS) before assessment of binding. Duplicate 0.2-ml aliquots of 2×10^6 cells were incubated with 200,000 cpm of ]^3H] LPA in 0.25% bovine serum albumnin-phosphate-buffered saline binding buffer for 45 minutes at 0° C. The final concentration of [^3H]LPA in the binding incubations was 10 nM. The binding cell suspensions were passed through GFIC filters that were washed with 12 ml of ice-cold PBS containing 0.05% Tween-20, air-dried, and added to scintillation fluid for quantification of radioactivity bound to the cells. Total and nonspecific binding were evaluated in the absence and the presence of 10 μM nonradioactive LPA, respectively. Specific binding was calculated from the difference in cpm between total binding and nonspecific binding."}, "[11]": {"system": "control vector-transfected Jurkat cells", "assay": "[3H]LPA binding in control vector-transfected Jurkat cells", "procedure": "as §1"}, "[12]": {"conditions": "Edg-2 & -4 antisense pretreatment, lipid 10^−8 M"}, "[13]": {"conditions": "Sham transfectants, lipid 10^−8 M, anti-Fas alone = 100%"}, "[14]": {"conditions": "Sham transfectants, lipid 10^−9 M, anti-Fas alone = 100%"}, "[15]": {"conditions": "1 μM lipid, Edg4-transfected Jurkat cells"}, "[16]": {"conditions": "1 μM lipid, Edg2-transfected Jurkat cells"}}, "note": "pEC50: −log10 of the molar value. Values joined by “and” are separate entries in the source; they are usually repeats but may differ in a detail not shown here. Equal entries are not always repeated. Where two headings read alike, the source gives them in different places.", "data": [{"compound": "COc1cccc(-c2cc(=O)c3ccccc3o2)c1N", "note": "[MEK, 2′-amino-3′-methoxyflavone]", "values": [{"measurement": "percentage inhibition of the control SRE reporter response to LPA", "setting": "[1]; 10^−7 M LPA, serum-free DMEM", "value": 41, "unit": "%"}, {"measurement": "percentage inhibition of the control SRE reporter response to S1P", "setting": "[1]; 10^−7 M S1P, serum-free DMEM", "value": 37, "unit": "%"}, {"measurement": "percentage inhibition of the control SRE reporter response to LPA", "setting": "[2]; 10^−7 M LPA, serum-free DMEM", "value": 69, "unit": "%"}, {"measurement": "percentage inhibition of the control SRE reporter response to S1P", "setting": "[2]; 10^−7 M S1P, serum-free DMEM", "value": 61, "unit": "%"}, {"measurement": "inhibition of LPA- and S1P-stimulated secretion of IGF-II", "setting": "[3]", "value": "inhibited"}]}, {"compound": "CCCCCCCCCCCCC/C=C/[C@@H](O)[C@@H](N)COP(=O)(O)O", "note": "[S1P, sphingosine 1-phosphate]", "values": [{"measurement": "increase in luciferase expression", "setting": "[4]", "value": "failed to generate significant increases"}, {"measurement": "increase in luciferase expression", "setting": "[5]", "value": "failed to generate significant increases"}, {"measurement": "maximal increase of mean luciferase luminometric activity", "setting": "[1]", "value": "≤ 85", "unit": "fold"}, {"measurement": "mean maximal increase of luciferase luminometric activity", "setting": "[2]", "value": 26, "unit": "fold"}, {"measurement": "effect on secretion of IGF-II", "setting": "[3]", "value": "Stimulation"}, {"measurement": "effect on apoptosis evoked by C6-ceramide", "setting": "[6]", "value": "suppressed significantly"}, {"measurement": "effect on apoptosis induced by anti-Fas antibody and a combination of anti-CD3 and anti-CD28 antibodies", "setting": "[6]", "value": "prevent apoptosis"}, {"measurement": "percentage of control apoptosis", "setting": "[7]; [12]", "value": 22, "unit": "%"}, {"measurement": "percentage of control apoptosis", "setting": "[7]; Edg-3 & -5 antisense pretreatment, lipid 10^−8 M", "value": "39% and 33%"}, {"measurement": "percentage of control apoptosis", "setting": "[7]; Edg-3 & -5 antisense pretreatment, lipid 10^−9 M", "value": 53, "unit": "%"}, {"measurement": "percentage of control apoptosis", "setting": "[7]; [13]", "value": 18, "unit": "%"}, {"measurement": "percentage of control apoptosis", "setting": "[7]; [14]", "value": 30, "unit": "%"}]}, {"compound": "Lysophosphatidic acid [LPA]", "values": [{"measurement": "magnitude of evoked SRE-driven reporter activation of Edg4 relative to that of Edg2", "setting": "[8]", "value": "approximately four times higher"}, {"measurement": "pEC50", "setting": "[5]; Edg2-transfected Jurkat cells", "value": "~8.00"}, {"measurement": "change in SRE-luciferase response", "setting": "[9]", "value": "minimal changes"}, {"measurement": "number of LPA-binding sites (receptor density)", "setting": "[10]", "value": "33,000±3200"}, {"measurement": "number of LPA-binding sites (receptor density)", "setting": "[11]", "value": "15,000±1300"}, {"measurement": "maximal increase of mean luciferase luminometric activity", "setting": "[1]", "value": "up to 37 fold"}, {"measurement": "mean maximal increase of luciferase luminometric activity", "setting": "[2]", "value": 24, "unit": "fold"}, {"measurement": "effect on secretion of IGF-II", "setting": "[3]", "value": "Stimulation"}, {"measurement": "effect on apoptosis evoked by C6-ceramide", "setting": "[6]", "value": "not"}, {"measurement": "effect on apoptosis induced by anti-Fas antibody and a combination of anti-CD3 and anti-CD28 antibodies", "setting": "[6]", "value": "prevent apoptosis"}, {"measurement": "percentage of control apoptosis", "setting": "[7]; [12]", "value": 61, "unit": "%"}, {"measurement": "percentage of control apoptosis", "setting": "[7]; Edg-2 & -4 antisense pretreatment, lipid 10^−9 M", "value": 69, "unit": "%"}, {"measurement": "percentage of control apoptosis", "setting": "[7]; [13]", "value": 31, "unit": "%"}, {"measurement": "percentage of control apoptosis", "setting": "[7]; [14]", "value": 51, "unit": "%"}]}, {"compound": "lysophosphatidyl-choline", "values": [{"measurement": "increase in luciferase expression", "setting": "[4]; [15]", "value": "failed to generate significant increases"}, {"measurement": "increase in luciferase expression", "setting": "[5]; [16]", "value": "failed to generate significant increases"}]}, {"compound": "lysophosphatidyl-ethanolamine", "values": [{"measurement": "increase in luciferase expression", "setting": "[4]; [15]", "value": "failed to generate significant increases"}, {"measurement": "increase in luciferase expression", "setting": "[5]; [16]", "value": "failed to generate significant increases"}]}, {"compound": "lysophosphatidyl-serine", "values": [{"measurement": "increase in luciferase expression", "setting": "[4]; [15]", "value": "failed to generate significant increases"}, {"measurement": "increase in luciferase expression", "setting": "[5]; [16]", "value": "failed to generate significant increases"}]}, {"compound": "phosphatidic acid [PA]", "values": [{"measurement": "pEC50", "setting": "[4]; Edg4-transfected Jurkat cells, 10-h incubation, read-out: EC50 of activation of SRE-driven reporter gene", "value": "≤ 6.30"}, {"measurement": "magnitude of evoked SRE-driven reporter activation of Edg4 relative to that of Edg2", "setting": "[8]", "value": "approximately four times higher"}, {"measurement": "pEC50", "setting": "[5]; Edg2-transfected Jurkat cells", "value": "≤ 6.30"}]}]}
